Experimental data taken from patent US6620838B1, “Benzopyrazone compounds, compositions thereof, and methods of treatment therewith” (Signal Pharmaceuticals, Inc., priority 2002, dated 2003).

Columns and labels:
Assay type in all cases: cell-based
[1] = tested on: IL-6 release from human U-2 OS osteosarcoma cells stably transfected with human ER-α or ER-β; test: Inhibition of IL-6 release; details: U2OS, U-2 OS cells with ER-α or ER-β (table does not say which), stimulated with 2.5 ng/ml TNFα and 1 ng/ml IL-1β, IL-6 ELISA after 24 h
Procedure: Illustrative benzopyranone compounds were tested for their ability to inhibit IL-6 release from human U-2 OS osteosarcoma cells stably transfected with human ER-α or ER-β. (Stein, B.; Yang, M. X. Mol. Cell. Biol 15: 4971-4979, 1995; Poli, V. et. al., EMBO J. 13:1189-1196, 1994). […] Benzopyranone compounds having an IC50<100 nM are particularly useful as bone resorption inhibitors in vivo. Accordingly, the compounds of this assay, illustrative benzopyranone compounds, are particularly useful for the treatment of osteoporosis, Paget's disease and metastatic bone cancer. These compounds are also useful as anti-cancer agents as elevated IL-6 levels are responsible for certain cancers such as multiple myeloma, prostate cancer, ovarian cancer, renal carcinoma and cervical carcinoma.
Human U-2 OS osteosarcoma cells (ATCC) were stably transfected with expression vectors for human full-length ER-α or ER-β, respectively, using standard molecular biology techniques. Stable subclones were generated that expressed high levels of ER-α or ER-β mRNA. The expression of ER-α and ER-β was confirmed using RNase protection analysis.
Cells were plated into 96-well plates at a density of 80,000 cells per well in phenol red-free media with charcoal-stripped fetal calf serum. Twenty four hours later, cells were either treated with vehicle (0.2% DMSO) or test compound ([…] in 0.2% DMSO). Thirty minutes later cells were stimulated with 2.5 ng/ml TNFα and 1 ng/ml IL-1β. Twenty-four hours later the media supernatant was analyzed for cytokine production (IL-6) using commercially available ELISA kits following the manufacturer's instructions. Cytokine production in the presence of vehicle (0.2% DMSO) was set to 100%. The results are expressed as IC50 (nM) values (Table 2) which is the concentration of the benzopyranone compound necessary to inhibit the production of IL-6 50% relative to the amount of IL-6 produced in the presence of vehicle.

[2] = tested on: MCF-7 breast cancer cells; test: Inhibition of MCF-7 breast cancer cell proliferation; details: Homo sapiens, MCF7; 17β-estradiol (0.1 nM)-dependent growth, 72 h, 3H-thymidine incorporation
Procedure: MCF-7 cells represent an excellent in vitro system to study the effects of compounds on estrogen-dependent breast cancer growth. (May, F. E. B.; Westley, B. R. J. Biol. Chem. 262:15894-15899, 1987). Benzopyranone compounds having an IC50<100 nM are particularly useful as anti-breast cancer agents in vivo.
MCF-7 breast carcinoma cells were plated in 24-well dishes at a density of 5×10^3 cells/well in phenol-red free DMEM:F-12 (1:1) medium containing 1% antibiotics, 0.05% mercaptoethanol, 0.01% ethanolamine, 0.42 ng/mL sodium selenite and 5% charcoal-stripped FCS.
Illustrative benzopyranone compounds (0.1-1000 nM in 0.2% DMSO) and 0.1 nM 17β-estradiol were added to the cultured MCF-7 breast cancer cells for 72 h. Subsequently, ^3H-labeled thymidine was added and its incorporation into cells was measured following 4 h incubation. The results are expressed as IC50 (nM) values (Table 2) which is the concentration of the benzopyranone compound necessary to inhibit the growth of MCF-7 breast cancer cells by 50% relative to controls.

[3] = tested on: BG-1 ovarian carcinoma cells; test: Inhibition of BG-1 ovarian carcinoma cell proliferation; details: 17β-estradiol (0.1 nM)-dependent growth, 72 h, 3H-thymidine incorporation
Procedure: BG-1 cells serve as a useful in vitro model for the evaluation of the effects of antiestrogenic compounds on ovarian tumor growth (Greenberger, L. M. et. al., Clin. Cancer Res. 7:3166-3177, 2001). Benzopyranone compounds having an IC50<100 nM are particularly useful as anti-ovarian cancer agents in vivo.
BG-1 ovarian carcinoma cells were plated in 24-well dishes at a density of 5×10^3 cells/well in phenol-red free DMEM:F-12 (1:1) medium containing 1% antibiotics, 0.05% mercaptoethanol, 0.01% ethanolamine, 0.42 ng/mL sodium selenite and 5% charcoal-stripped FCS. Illustrative benzopyranone compounds (0.1-1000 nM in 0.2% DMSO) and 0.1 nM 17β-estradiol were added to the cultured BG-1 ovarian carcinoma cells and incubated for 72 h. Subsequently, ^3H-labeled thymidine was added and its incorporation into cells was measured following 4h incubation. The results are expressed as IC50 (nM) values (Table 2) which is the concentration of the benzopyranone compound necessary to inhibit the growth of BG-1 ovarian carcinoma cells by 50% relative to controls.

Structure (SMILES) | IC50 [1] [nM] | IC50 [2] [nM] | IC50 [3] [nM]
O=c1oc2cc(O)ccc2c(Cc2ccc(OCCN3CCCC3)cc2)c1-c1ccc(C(F)(F)F)cc1C(F)(F)F | 0.41 | 19 | 6.6
O=c1oc2cc(O)ccc2c(Cc2ccc(OCCN3CCCC3)cc2)c1-c1ccc(Cl)cc1C(F)(F)F | 0.45 | 4.1 | 3.2
O=c1oc2cc(O)ccc2c(Cc2ccc(OCCN3CCCC3)cc2)c1-c1ccc(Cl)cc1Cl | 0.32 | 5.4 | 0.69

The next lines start with the values.

IC50 [1] [nM] | IC50 [2] [nM] | IC50 [3] [nM] | Structure (SMILES)
1.45 | 15.8 | 9.35 | C=C/C(=C\C=C\OCCN1CCCC1)Cc1c(-c2ccc(C(F)(F)F)cc2)c(=O)oc2cc(O)ccc12
0.4 | 5.5 | 3.4 | O=c1oc2cc(O)ccc2c(Cc2ccc(OCCN3CCCC3)cc2)c1-c1ccc(C(F)(F)F)cc1Cl
